These are literature values, as cited in patent publication US20200308169A1, “HETEROCYCLIC COMPOUNDS AS ANTIBACTERIALS” (JANSSEN SCIENCES IRELAND UNLIMITED COMPANY, priority 2016, published 2020).

For one data set, the system named is M. tuberculosis H37Rv. Particulars: strain H37Rv, inside macrophages.
The test system of data set [1] is replicating and non-replicating bacteria. The note with it: both replicating and non-replicating bacteria.

Each structure is given as a SMILES string. Values after ≈ are worked out from the molar mass of the structure shown.

For `CCc1nc2ccc(Cl)cn2c1C(=O)NCc1ccc(N2CCC(c3ccc(OC(F)(F)F)cc3)CC2)cc1` [Q203], the MIC50 in the data set with M. tuberculosis H37Rv is reported as 0.28 nM (≈ 0.156 ng/mL). In addition, the “activity against replicating and non-replicating bacteria” value in data set [1] is listed as “highly active”.
